Source: ChEMBL document CHEMBL3600310 (J Med Chem, 2015)

Assays:
Type in all cases: functional, cell-based
[1] = system: A549; experiment: Cytotoxicity against human A549 cells after 72 hrs by MTT assay; conditions: A549, 72 h
[2] = system: HCT-116; experiment: Cytotoxicity against human HCT116 cells after 72 hrs by MTT assay; conditions: HCT-116, 72 h
[3] = system: MDA-MB-435; experiment: Cytotoxicity against human MDA-MB-435 cells after 72 hrs by MTT assay; conditions: MDA-MB-435, 72 h

| Structure (SMILES) | IC50 [1] | IC50 [2] | IC50 [3] |
| --- | --- | --- | --- |
| Cc1cccc2c1C(=S)N1CCc3c([nH]c4ccccc34)C1O2 (stereo not drawn) | 11 µM | 3.8 µM | 4.5 µM |
| COc1ccc2[nH]c3c(c2c1)CCN1C(=O)c2ccc(C)cc2OC31 (stereo not drawn) | > 200 µM | > 200 µM | 198 µM |
| O=C1c2c(ccc3ccccc23)OC2c3[nH]c4ccc(O)cc4c3CCN12 (stereo not drawn) | 3.1 µM | 6.3 µM | 2.7 µM |
| COc1cccc2c1OC1c3[nH]c4ccccc4c3CCN1C2=O (stereo not drawn) | 26.8 µM | 2.21 µM | 16.9 µM |
| COc1ccc2[nH]c3c(c2c1)CCN1C(=O)c2cc(Cl)ccc2OC31 (stereo not drawn) | 0.05 µM | 1 µM | 2.4 µM |
| CCNc1ccc2c(c1)C(=O)N1CCc3c([nH]c4ccccc34)C1O2 (stereo not drawn) | > 200 µM | 39.4 µM | > 200 µM |
| O=C1c2ccc(Cl)cc2OC2c3[nH]c4ccc(O)cc4c3CCN12 (stereo not drawn) | 10.6 µM | 18.7 µM | 7.1 µM |
| CN1c2ccccc2C(=O)N2CCCc3c([nH]c4ccc(O)cc34)C21 (stereo not drawn) | 32.4 µM | 59.8 µM | 69.2 µM |
| COc1ccc2[nH]c3c(c2c1)CCN1C(=O)c2ccccc2C31O (stereo not drawn) | > 200 µM | > 200 µM | > 200 µM |
| S=C1c2ccccc2OC2c3[nH]c4ccccc4c3CCN12 (stereo not drawn) | 7.7 µM | 5.6 µM | 4.8 µM |
| COc1ccc2[nH]c3c(c2c1)CCN1C(=O)c2cc([N+](=O)[O-])ccc2OC31 (stereo not drawn) | > 200 µM | > 200 µM | > 200 µM |
| O=C1c2cc(Br)ccc2OC2c3[nH]c4ccccc4c3CCN12 (stereo not drawn) | 1.6 µM | 13.8 µM | 3.7 µM |
| O=C1c2ccc(O)cc2OC2c3[nH]c4ccccc4c3CCN12 (stereo not drawn) | 17.5 µM | 54.1 µM | 29.3 µM |
| COc1ccc2[nH]c3c(c2c1)CCN1C(=O)c2c(ccn2C)N(C)C31 (stereo not drawn) | 28.5 µM | 54.1 µM | 42 µM |
| CN1c2ccccc2C(=O)N2CCCc3c(oc4ccc(O)cc34)C21 (stereo not drawn) | > 200 µM | > 200 µM | > 200 µM |
| CN1c2ccccc2C(=O)N2CCc3c([nH]c4ccccc34)[C@@H]21 [EVODIAMINE] | > 200 µM | > 200 µM | 22.1 µM |
| O=C1c2ccc(C(F)(F)F)cc2OC2c3[nH]c4ccccc4c3CCN12 (stereo not drawn) | 25.8 µM | 23.3 µM | 21.9 µM |
| CN1c2ccsc2C(=O)N2CCc3c([nH]c4ccc(O)cc34)C21 (stereo not drawn) | 15.8 µM | 23.6 µM | > 200 µM |
| CC(C)CNc1ccc2c(c1)C(=O)N1CCc3c([nH]c4ccccc34)C1O2 (stereo not drawn) | > 200 µM | 5.3 µM | > 200 µM |
| COc1ccc2c(c1)OC1c3[nH]c4ccccc4c3CCN1C2=O (stereo not drawn) | 174 µM | 71.2 µM | 52.3 µM |
| CN1c2ccn(C)c2C(=O)N2CCc3c([nH]c4ccccc34)C21 (stereo not drawn) | > 200 µM | 76.5 µM | 207 µM |
| COc1ccc2[nH]c3c(c2c1)CCN1C(=O)c2cc(N)ccc2OC31 (stereo not drawn) | 114 µM | 42.8 µM | 132 µM |
| O=C1c2ccc(Cl)cc2OC2c3[nH]c4ccccc4c3CCN12 (stereo not drawn) | 58.6 µM | 40.6 µM | 34.2 µM |
| O=C1c2cc(Br)ccc2OC2c3[nH]c4ccc(O)cc4c3CCN12 (stereo not drawn) | 0.06 µM | < 0.003 µM | < 0.003 µM |

| Structure (SMILES) | IC50 [1] | IC50 [2] | IC50 [3] |
| --- | --- | --- | --- |
| O=C1c2cccc(O)c2OC2c3[nH]c4ccccc4c3CCN12 (stereo not drawn) | 103 µM | > 200 µM | 42.3 µM |
| COc1ccc2[nH]c3c(c2c1)CCN1C(=O)c2ccc(Cl)cc2OC31 (stereo not drawn) | 3.8 µM | 8.7 µM | 4.6 µM |
| O=C1c2cc(Cl)cc(Cl)c2OC2c3[nH]c4ccccc4c3CCN12 (stereo not drawn) | 1.8 µM | 6.7 µM | 14.2 µM |
| CN1c2ccn(C)c2C(=O)N2CCc3c([nH]c4ccc(O)cc34)C21 (stereo not drawn) | 5 µM | 15.4 µM | 11.7 µM |
| O=C1c2cc(I)cc(I)c2OC2c3[nH]c4ccccc4c3CCN12 (stereo not drawn) | > 200 µM | 24.4 µM | > 200 µM |
| COc1ccc2c(c1)C(=O)N1CCc3c([nH]c4ccc(OC)cc34)C1O2 (stereo not drawn) | 9.5 µM | 23.7 µM | 10.1 µM |
| Cc1cccc2c1C(=O)N1CCc3c([nH]c4ccccc34)C1O2 (stereo not drawn) | > 200 µM | 38.1 µM | > 200 µM |
| O=C1c2ccc(F)cc2OC2c3[nH]c4ccccc4c3CCN12 (stereo not drawn) | 95 µM | 6.7 µM | 171 µM |
| Cc1ccc2c(c1)OC1c3[nH]c4ccccc4c3CCN1C2=O (stereo not drawn) | 62.5 µM | 25.5 µM | 97.2 µM |
| Cc1cccc2c1C(=O)N1CCc3c([nH]c4ccc(O)cc34)C1O2 (stereo not drawn) | 1.8 µM | < 0.003 µM | < 0.003 µM |
| COc1ccc2[nH]c3c(c2c1)CCN1C(=O)c2cc4ccccc4cc2OC31 (stereo not drawn) | > 200 µM | 58 µM | 34.8 µM |
| COc1ccc2[nH]c3c(c2c1)CCN1C(=O)c2c(ccc4ccccc24)OC31 (stereo not drawn) | > 200 µM | > 200 µM | 31 µM |
| Cc1ccc2c(c1)OC1c3[nH]c4ccccc4c3CCN1C2=S (stereo not drawn) | 65.2 µM | 44.4 µM | 60.3 µM |
| COc1ccc2[nH]c3c(c2c1)CCN1C(=O)c2cc(Br)ccc2OC31 (stereo not drawn) | 2.6 µM | 5.4 µM | 7.1 µM |
| COc1ccc2c(c1)C(=O)N1CCc3c([nH]c4ccccc34)C1O2 (stereo not drawn) | 14.8 µM | 25.6 µM | > 200 µM |
| O=C1c2ccc(C(F)(F)F)cc2OC2c3[nH]c4ccc(O)cc4c3CCN12 (stereo not drawn) | 14.7 µM | 10.9 µM | 10.5 µM |
| COc1ccc2[nH]c3c(c2c1)CCN1C(=O)c2cc(F)ccc2OC31 (stereo not drawn) | 13.1 µM | 25.1 µM | 36.4 µM |
| COc1ccc2[nH]c3c(c2c1)CCN1C(=O)c2ccc(C(F)(F)F)cc2OC31 (stereo not drawn) | 50.5 µM | 31.7 µM | 26.2 µM |
| COc1ccc2[nH]c3c(c2c1)CCN1C(=O)c2ccc(F)cc2OC31 (stereo not drawn) | > 200 µM | 37.1 µM | 157 µM |
| COc1ccc2[nH]c3c(c2c1)CCN1C(=O)c2sccc2N(C)C31 (stereo not drawn) | > 200 µM | > 200 µM | > 200 µM |
| COc1ccc2c(c1)OC1c3[nH]c4ccc(OC)cc4c3CCN1C2=O (stereo not drawn) | > 200 µM | > 200 µM | > 200 µM |
| Nc1ccc2c(c1)C(=O)N1CCc3c([nH]c4ccccc34)C1O2 (stereo not drawn) | 2.7 µM | 2.3 µM | 9.1 µM |
| O=C1c2ccccc2OC2c3[nH]c4ccccc4c3CCN12 (stereo not drawn) | 2.4 µM | 3.1 µM | 3 µM |
| COc1ccc2[nH]c3c(c2c1)CCCN1C(=O)c2ccccc2N(C)C31 (stereo not drawn) | > 200 µM | > 200 µM | > 200 µM |

| Structure (SMILES) | IC50 [1] | IC50 [2] | IC50 [3] |
| --- | --- | --- | --- |
| O=C1c2cc(F)ccc2OC2c3[nH]c4ccccc4c3CCN12 (stereo not drawn) | 6.6 µM | 5.8 µM | 46.1 µM |
| CN1c2cscc2C(=O)N2CCc3c([nH]c4ccc(O)cc34)C21 (stereo not drawn) | 3.9 µM | 4.8 µM | 32.3 µM |
| CCCNc1ccc2c(c1)C(=O)N1CCc3c([nH]c4ccccc34)C1O2 (stereo not drawn) | 173 µM | 16.7 µM | > 200 µM |
| O=C1c2cc(Cl)cc(Cl)c2OC2c3[nH]c4ccc(O)cc4c3CCN12 (stereo not drawn) | 8.6 µM | 7 µM | 0.3 µM |
| CCCN(CCC)c1ccc2c(c1)C(=O)N1CCc3c([nH]c4ccccc34)C1O2 (stereo not drawn) | > 200 µM | 2.3 µM | > 200 µM |
| CCc1c2c(nc3ccc(OC(=O)N4CCC(N5CCCCC5)CC4)cc13)-c1cc3c(c(=O)n1C2)COC(=O)[C@]3(O)CC [IRINOTECAN] | 20.1 µM | 18.6 µM | 6.3 µM |
| COc1ccc2[nH]c3c(c2c1)CCN1C(=O)c2cscc2N(C)C31 (stereo not drawn) | 32.3 µM | 94.9 µM | 49 µM |
| CC(C)C(=O)Nc1ccc2c(c1)C(=O)N1CCc3c([nH]c4ccccc34)C1O2 (stereo not drawn) | 28.4 µM | 9.4 µM | 11.7 µM |
| CN1c2ccoc2C(=O)N2CCc3c([nH]c4ccccc34)C21 (stereo not drawn) | > 200 µM | 178 µM | 182 µM |
| COc1ccc2oc3c(c2c1)CCCN1C(=O)c2ccccc2N(C)C31 (stereo not drawn) | 6.2 µM | 5.3 µM | 28.4 µM |
| O=C1c2cc([N+](=O)[O-])ccc2OC2c3[nH]c4ccccc4c3CCN12 (stereo not drawn) | > 200 µM | > 200 µM | > 200 µM |
| O=C1c2cccc(O)c2OC2c3[nH]c4ccc(O)cc4c3CCN12 (stereo not drawn) | > 200 µM | 53.4 µM | 66.2 µM |
| COc1ccc2[nH]c3c(c2c1)CCN1C(=O)c2cccc(OC)c2OC31 (stereo not drawn) | > 200 µM | 52.7 µM | 80.1 µM |
| CC(=O)Nc1ccc2c(c1)C(=O)N1CCc3c([nH]c4ccccc34)C1O2 (stereo not drawn) | 20.1 µM | 5.8 µM | 19.6 µM |
| O=C1c2cc3ccccc3cc2OC2c3[nH]c4ccc(O)cc4c3CCN12 (stereo not drawn) | 5.6 µM | 5.1 µM | 5.1 µM |
| O=C1c2cc(Cl)ccc2OC2c3[nH]c4ccccc4c3CCN12 (stereo not drawn) | 0.05 µM | 1.4 µM | 0.6 µM |
| COc1ccc2[nH]c3c(c2c1)CCN1C(=O)c2ccc4ccccc4c2OC31 (stereo not drawn) | > 200 µM | > 200 µM | > 200 µM |
| COc1ccc2[nH]c3c(c2c1)CCN1C(=O)c2ccccc2[C@H]31 | 193 µM | 30.9 µM | > 200 µM |
| COc1ccc2[nH]c3c(c2c1)CCN1C(=O)c2ccccc2OC31 (stereo not drawn) | > 200 µM | > 200 µM | > 200 µM |
| O=C1c2ccccc2OC2c3[nH]c4ccc(Cl)cc4c3CCN12 (stereo not drawn) | 3.49 µM | 2.1 µM | 5.59 µM |
| O=C1c2c(F)cccc2OC2c3[nH]c4ccccc4c3CCN12 (stereo not drawn) | 35.1 µM | 31 µM | 71 µM |
| CN1c2ccsc2C(=O)N2CCc3c([nH]c4ccccc34)C21 (stereo not drawn) | 111 µM | 192 µM | > 200 µM |
| COc1ccc2[nH]c3c(c2c1)CCN1C(=O)c2ccsc2N(C)C31 (stereo not drawn) | 26.9 µM | 14.1 µM | 36.2 µM |
